# Test results from the C3SDB collision cross section collection.
# Tests used:
# [1] = instrument: DT, single field, calibrated with Agilent tune mix (Agilent)
# [2] = instrument: DT, stepped-field
# [3] = instrument: DT, single field, calibrated with Agilent tune mix (Agilent); remark: listed apart in the source
compound,measurement,setting,value
Cn1cnc(CCN)c1 [1-Methylhistamine],collision cross section (N2),[1]; [M+H]+,121.3 Å²
same,collision cross section (N2),[2]; [M+H]+,122.56 Å²
Cn1cncc1CCN [3-Methylhistamine],collision cross section (N2),[1]; [M+H]+,123.8 Å²
same,collision cross section (N2),[2]; [M+H]+,126.53 Å²
C[C@]12CCC(=O)C=C1CC[C@@H]1[C@@H]2CC[C@]2(C)C(=O)CC[C@@H]12 [Androstenedione],collision cross section (N2),[1]; [M+H]+,173.3 Å²
same,collision cross section (N2),[2]; [M+H]+,183.95 Å²
same,collision cross section (N2),[2]; [M+Na]+,204.73 Å²
CCCCCCCCCCCCCCCC(=O)N[C@@H](CO)[C@H](O)CCCCCCCCCCCCCCC [Cer(34:0)],collision cross section (N2),[3]; [M+HCOO]-,251.8 Å²
CCCCCCCCCCCCC=CC[C@@H](O)[C@H](CO)NC(=O)CCCCCCCCCCCCCCC [Cer(34:1)],collision cross section (N2),[3]; [M+HCOO]-,250.4 Å²
same,collision cross section (N2),[3]; [M+H]+,253.6 Å²
CCCCCCCCCCCCC=CC[C@@H](O)[C@H](CO)NC(=O)CCCCCCCCCCCCCCCCC [Cer(36:1)],collision cross section (N2),[3]; [M+HCOO]-,257.6 Å²
same,collision cross section (N2),[3]; [M+H]+,261.6 Å²
same,collision cross section (N2),[3]; [M+Na]+,268.6 Å²
same,collision cross section (N2),[3]; [M-H]-,248.6 Å²
CCCCCCCCCCCCCCCCCCCCCC(=O)N[C@@H](CO)[C@H](O)CCCCCCCCCCCCCCC [Cer(40:0)],collision cross section (N2),[3]; [M+HCOO]-,272 Å²
same,collision cross section (N2),[3]; [M+H]+,274.7 Å²
same,collision cross section (N2),[3]; [M-H]-,262.1 Å²
CCCCCCCCCCCCC=CC[C@@H](O)[C@H](CO)NC(=O)CC=CCCCCCCCCCCCCCCCCCCC [Cer(41:2)],collision cross section (N2),[3]; [M+H]+,273.5 Å²
same,collision cross section (N2),[3]; [M+Na]+,273.8 Å²
CCCCCCCCCCCCC=CC[C@@H](O)[C@H](CO)NC(=O)CCCCCCCCCCCCCCCCCCCCCCCCC [Cer(44:1)],collision cross section (N2),[3]; [M+H]+,284.8 Å²
same,collision cross section (N2),[3]; [M+Na]+,285 Å²
C[N+](C)(C)CCOP(=O)([O-])OP(=O)(O)OC[C@H]1O[C@@H](n2ccc(N)nc2=O)[C@H](O)[C@@H]1O [Cytidine 5'-diphosphocholine],collision cross section (N2),[1]; [M+H]+,197.6 Å²
same,collision cross section (N2),[1]; [M-H]-,200.64 Å²
same,collision cross section (N2),[2]; [M+H]+,198.86 Å²
same,collision cross section (N2),[2]; [M+Na]+,208.98 Å²
OC[C@H]1O[C@@H](O[C@H]2[C@H](O)[C@@H](O)[C@H](O)O[C@@H]2CO)[C@H](O)[C@@H](O)[C@H]1O [D-Lactose],collision cross section (N2),[1]; [M+Na]+,175.1 Å²
same,collision cross section (N2),[2]; [M+Na]+,178.83 Å²
CC/C=C\C/C=C\C/C=C\C/C=C\C/C=C\C/C=C\CCC(=O)O[C@@H](CO)COC(=O)CCCCCCCCCCCCCCCCCCC [DG(42:6)],collision cross section (N2),[3]; [M+NH4]+,280.3 Å²
N[C@@H](CCC(=O)N[C@@H](CS)C(=O)NCC(=O)O)C(=O)O [Glutathione],collision cross section (N2),[1]; [M+H]+,167.4 Å²
same,collision cross section (N2),[2]; [M+Na]+,168.23 Å²
OC[C@H]1O[C@H](OC[C@H]2OC(O)[C@H](O)[C@@H](O)[C@@H]2O)[C@H](O)[C@@H](O)[C@@H]1O (stereo partly specified) [Isomaltose],collision cross section (N2),[1]; [M+Na]+,177.3 Å²
same,collision cross section (N2),[1]; [M-H]-,171.96 Å²
same,collision cross section (N2),[2]; [M+Na]+,178.02 Å²
O=c1c(O)c(-c2ccc(O)cc2)oc2cc(O)cc(O)c12 [Kaempferol],collision cross section (N2),[1]; [M+H]+,162.9 Å²
same,collision cross section (N2),[1]; [M-H]-,160.32 Å²
same,collision cross section (N2),[2]; [M+H]+,165.99 Å²
same,collision cross section (N2),[2]; [M+Na]+,187.2 Å²
CCCC[C@H](N)C(=O)O [L-Norleucine],collision cross section (N2),[1]; [M-H]-,129.02 Å²
same,collision cross section (N2),[2]; [M+H]+,142.63 Å²
CCCCCCCCCCCCCCC(=O)OC[C@@H](O)COP(=O)([O-])OCC[N+](C)(C)C [LPC(15:0)],collision cross section (N2),[3]; [M+H]+,225 Å²
CCCCCCCCCCCCCCCCC(=O)OC[C@@H](O)COP(=O)([O-])OCC[N+](C)(C)C [LPC(17:0)],collision cross section (N2),[3]; [M+HCOO]-,237.7 Å²
CCCCC/C=C\C/C=C\CCCCCCCCCC(=O)OC[C@@H](O)COP(=O)([O-])OCC[N+](C)(C)C [LPC(20:2)],collision cross section (N2),[3]; [M+H]+,233.9 Å²
CCCCCCCC/C=C\CCCCCCCCCC(=O)OC[C@@H](O)COP(=O)(O)OCCN [LPE(20:1)],collision cross section (N2),[3]; [M-H]-,218.4 Å²
CCCCCCCCCCCCCCCCC(=O)OC[C@@H](O)COP(=O)(O)OC[C@H](N)C(=O)O [LPS(17:0)],collision cross section (N2),[3]; [M-H]-,220.1 Å²
CCCCCCCC/C=C\CCCCCCCC(=O)OC[C@@H](O)COP(=O)(O)OC[C@H](N)C(=O)O [LPS(18:1)],collision cross section (N2),[3]; [M+H]+,224.2 Å²
same,collision cross section (N2),[3]; [M+Na]+,227 Å²
same,collision cross section (N2),[3]; [M-H]-,220.5 Å²
CCCCCCCCCC/C=C\CCCCCCCCCC(=O)OC[C@@H](O)COP(=O)(O)OC[C@H](N)C(=O)O [LPS(22:1)],collision cross section (N2),[3]; [M-H]-,234.2 Å²
OC[C@H]1O[C@H](O[C@H]2[C@H](O)[C@@H](O)[C@@H](O[C@H]3[C@H](O)[C@@H](O)C(O)O[C@@H]3CO)O[C@@H]2CO)[C@H](O)[C@@H](O)[C@@H]1O (stereo partly specified) [Maltotriose],collision cross section (N2),[1]; [M+Na]+,212.7 Å²
same,collision cross section (N2),[2]; [M+Na]+,212.54 Å²
CCCCCCCC/C=C\CCCCCCCCCC(=O)O[C@H](COC(=O)CCCCCCCCCCC)COP(=O)(O)O [PA(32:1)],collision cross section (N2),[3]; [M-H]-,249 Å²
